Experimental findings from PubChem BioAssay AID330 (DTP/NCI, 2004) are described below.

Structures are written as SMILES. Values joined by “and” are separate entries in the source; they are usually repeats but may differ in a detail not shown here. Equal values may be shown once. Toxic doses and inconclusive results are not listed.

This test has as its system P388 leukemia ip, CD2F1 mice, survival T/C. Briefly: NCI In Vivo Anticancer Drug Screen. Data for tumor model P388 Leukemia (intraperitoneal) in CD2F1 (CDF1) mice. To be noted: endpoint: median survival time, higher = longer survival. The method in brief: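 Mice carrying the transplanted tumor received test compound or vehicle. Survival was recorded in each group, and the value is the treated-group measurement divided by that of the vehicle-treated control group.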

Setting [1] is: dose: 50.0 mg/kg/injection, schedule: Q01DX009 (ip), vehicle: saline.
Setting [2] is: dose: 100.0 mg/kg/injection, schedule: Q01DX009 (ip), vehicle: saline.
Where [3] appears, read: dose: 100.0 mg/kg/injection, schedule: Q04DX002 (ip), vehicle: saline with Tween-80.
Setting [4] is: dose: 200.0 mg/kg/injection, schedule: Q04DX002 (ip), vehicle: saline with Tween-80.
[5] abbreviates: dose: 50.0 mg/kg/injection, schedule: Q01DX005 (ip), vehicle: Klucel (hydroxypropylcellulose) (HPC).
[6] abbreviates: dose: 100.0 mg/kg/injection, schedule: Q01DX005 (ip), vehicle: Klucel (hydroxypropylcellulose) (HPC).
The mark [7] stands for this setting: dose: 12.5 mg/kg/injection, schedule: Q01DX009 (ip), vehicle: saline.
Where [8] appears, read: dose: 25.0 mg/kg/injection, schedule: Q01DX009 (ip), vehicle: saline.
Where [9] appears, read: dose: 50.0 mg/kg/injection, schedule: Q01DX009 (ip), vehicle: Klucel (hydroxypropylcellulose) (HPC).
[10] abbreviates: dose: 100.0 mg/kg/injection, schedule: Q01DX009 (ip), vehicle: Klucel (hydroxypropylcellulose) (HPC).
Setting [11] is: dose: 200.0 mg/kg/injection, schedule: Q01DX009 (ip), vehicle: Klucel (hydroxypropylcellulose) (HPC).
[12] abbreviates: dose: 100.0 mg/kg/injection, schedule: Q01DX009 (ip), vehicle: saline with Tween-80.
Where [13] appears, read: dose: 200.0 mg/kg/injection, schedule: Q01DX009 (ip), vehicle: saline with Tween-80.
[14] abbreviates: dose: 25.0 mg/kg/injection, schedule: Q01DX009 (ip), vehicle: Klucel (hydroxypropylcellulose) (HPC).
The mark [15] stands for this setting: dose: 50.0 mg/kg/injection, schedule: Q01DX009 (ip), vehicle: saline with Tween-80.
Where [16] appears, read: dose: 50.0 mg/kg/injection, schedule: Q04DX003 (ip), vehicle: saline with Tween-80.

Take `OCCSC(=S)Nc1ccc(Cl)c(Cl)c1`: the T/C by setting is: under setting [1], 96 % of control; under setting [2], 103 % of control.
As to `c1ccc2c(c1)ccc1ncc3ncccc3c12`, the T/C reads like this: under setting [3], 98 % of control; under setting [4], 114 % of control.
For the compound `O=CNC(Cc1cccc(N(CCCl)CCCl)c1)C(=O)O` (stereo unspecified), where the note is “dose: 25.0 mg/kg/injection, schedule: Q01DX009 (ip), vehicle: saline sonified”, the T/C is 95 % of control.
With `C=C1CC(C)OC1=O` (stereo unspecified), the T/C was 103 % of control under setting [3] and 111 % of control under setting [4].
Take `Cc1nc2cc3ccccc3cc2nc1C`: the T/C under setting [5] is 100 % of control; the T/C under setting [6] was 99 % of control; the T/C (dose: 200.0 mg/kg/injection, schedule: Q01DX005 (ip), vehicle: Klucel (hydroxypropylcellulose) (HPC)) is 100 % of control.
Consider `Oc1ccc2c(c1)OC1(c3ccccc3)CC2N=CN1` (stereo unspecified), for which the T/C was 103 % of control under setting [7]; 95 % of control under setting [8]; 107 % of control under setting [1]; 98 % of control and 92 % of control (dose: 50.0 mg/kg/injection, schedule: Q01DX009 (ip), vehicle: suspension in saline); 98 % of control and 92 % of control (dose: 100.0 mg/kg/injection, schedule: Q01DX009 (ip), vehicle: suspension in saline); 99 % of control (dose: 200.0 mg/kg/injection, schedule: Q01DX009 (ip), vehicle: suspension in saline).
In the case of `S=C(N/N=C/c1ccc2c(c1)OCO2)NC1CCCCC1`, the T/C runs as follows: under setting [9], 111 % of control; under setting [10], 111 % of control; under setting [11], 116 % of control.
In the case of `COc1ccc2c(c1)C(Br)CCCC2=O` (stereo unspecified), for the setting “dose: 400.0 mg/kg/injection, schedule: Q01DX009 (ip), vehicle: distilled water + alcohol”, the T/C was 106 % of control.
In the case of `O=c1cc(N2CCOCC2)n2ccccc2n1`, the T/C is, setting by setting: (dose: 60.0 mg/kg/injection, schedule: Q01DX005 (ip), vehicle: saline) 96 % of control; (dose: 120.0 mg/kg/injection, schedule: Q01DX005 (ip), vehicle: saline) 102 % of control; (dose: 240.0 mg/kg/injection, schedule: Q01DX005 (ip), vehicle: saline) 96 % of control.
Turning to `COc1ccc2c(c1)OC/C(=C\c1ccc([N+](=O)[O-])o1)C2=O`, the T/C by setting is: under setting [12], 91 % of control; under setting [13], 86 % of control; (dose: 400.0 mg/kg/injection, schedule: Q01DX009 (ip), vehicle: saline with Tween-80) 92 % of control.
On to `O=[N+]([O-])c1cnc[nH]1`, for which the T/C is, setting by setting: under setting [14], 105 % of control; under setting [9], 100 % of control and 101 % of control; under setting [10], 100 % of control and 105 % of control; under setting [11], 99 % of control and 100 % of control; (dose: 360.0 mg/kg/injection, schedule: Q01DX001 (ip), vehicle: saline with Tween-80) 95 % of control; (dose: 600.0 mg/kg/injection, schedule: Q01DX001 (ip), vehicle: saline with Tween-80) 100 % of control and 92 % of control. The T/C (dose: 1000.0 mg/kg/injection, schedule: Q01DX001 (ip), vehicle: saline with Tween-80) was 99 % of control and 106 % of control.
As for `O=C(O)c1ccc2c3c(ccc(C(=O)O)c13)CC2`, the T/C reads like this: under setting [14], 105 % of control; under setting [9], 102 % of control; under setting [10], 99 % of control.
As for `C#CCn1c(=O)c2cc3ccccc3nc2n(CC#C)c1=O`, the T/C under setting [5] is 96 % of control and the T/C under setting [6] was 93 % of control.
As for `Cc1csc(NN=O)n1`, the T/C is 98 % of control (dose: 1.56 mg/kg/injection, schedule: Q01DX009 (ip), vehicle: water); 104 % of control and 95 % of control (dose: 3.12 mg/kg/injection, schedule: Q01DX009 (ip), vehicle: water); 105 % of control and 96 % of control (dose: 6.25 mg/kg/injection, schedule: Q01DX009 (ip), vehicle: water); 100 % of control and 102 % of control (dose: 12.5 mg/kg/injection, schedule: Q01DX009 (ip), vehicle: water); 99 % of control and 102 % of control (dose: 25.0 mg/kg/injection, schedule: Q01DX009 (ip), vehicle: water); 111 % of control (dose: 50.0 mg/kg/injection, schedule: Q01DX009 (ip), vehicle: water).
As for `O=C1C2CC3OC3CC2C(=O)N1CCN1C(=O)C2CC3OC3CC2C1=O` (stereo unspecified), the T/C (dose: 50.0 mg/kg/injection, schedule: Q01DX005 (ip), vehicle: saline with Tween-80) was 100 % of control; the T/C (dose: 100.0 mg/kg/injection, schedule: Q01DX005 (ip), vehicle: saline with Tween-80) was 104 % of control; the T/C (dose: 200.0 mg/kg/injection, schedule: Q01DX005 (ip), vehicle: saline with Tween-80) was 104 % of control.
Turning to `O=S(=O)(O)c1c(O)ccc2nc3ccccc3nc12`, the T/C was 99 % of control and 97 % of control under setting [7]; 98 % of control and 96 % of control under setting [8]; 103 % of control and 104 % of control and 106 % of control under setting [1]; 98 % of control under setting [2]; 96 % of control (dose: 200.0 mg/kg/injection, schedule: Q01DX009 (ip), vehicle: saline).
For `[Cl][Pt+2][Cl].[NH-]C1CCCCCCC1.[NH-]C1CCCCCCC1`, the T/C reads like this: (dose: 12.5 mg/kg/injection, schedule: Q01DX009 (ip), vehicle: other) 106 % of control; (dose: 25.0 mg/kg/injection, schedule: Q01DX009 (ip), vehicle: other) 97 % of control; (dose: 50.0 mg/kg/injection, schedule: Q01DX009 (ip), vehicle: other) 101 % of control; (dose: 100.0 mg/kg/injection, schedule: Q01DX009 (ip), vehicle: other) 117 % of control; (dose: 200.0 mg/kg/injection, schedule: Q01DX009 (ip), vehicle: other) 108 % of control.
In the case of `CCCCNC(C)[C@]1(O)Cc2c(O)c3c(c(O)c2[C@@H](OC2CC(N)C(O)C(C)O2)C1)C(=O)c1c(OC)cccc1C3=O` (stereo partly specified), the T/C by setting is: (dose: 1.25 mg/kg/injection, schedule: Q01DX009 (ip), vehicle: water) 154 % of control; (dose: 2.5 mg/kg/injection, schedule: Q01DX009 (ip), vehicle: water) 152 % of control and 170 % of control; (dose: 5.0 mg/kg/injection, schedule: Q01DX009 (ip), vehicle: water) 176 % of control and 190 % of control; (dose: 10.0 mg/kg/injection, schedule: Q01DX009 (ip), vehicle: water) 99 % of control.
Regarding `CC1(C)COC(=O)C1=C(C#N)C#N`, the T/C is, setting by setting: (dose: 25.0 mg/kg/injection, schedule: Q04DX003 (ip), vehicle: saline) 100 % of control; (dose: 50.0 mg/kg/injection, schedule: Q04DX003 (ip), vehicle: saline) 98 % of control; (dose: 100.0 mg/kg/injection, schedule: Q04DX003 (ip), vehicle: saline) 102 % of control.
Take `[Cl][Sn]([Cl])([S]c1nccc2ccccc12)[S]c1nccc2ccccc12`: the T/C was 102 % of control under setting [15], 93 % of control under setting [12] and 93 % of control under setting [13].
Turning to `O=NN(Cc1ccc(Cl)cc1)NC1=NCCN1`, the T/C is 98 % of control under setting [9], 99 % of control under setting [10] and 105 % of control under setting [11].
Turning to `CC(=O)NS(=O)(=O)c1ccc(C)cc1`, the T/C is, setting by setting: (dose: 100.0 mg/kg/injection, schedule: Q04DX003 (ip), vehicle: Klucel (hydroxypropylcellulose) (HPC)) 106 % of control; (dose: 200.0 mg/kg/injection, schedule: Q04DX003 (ip), vehicle: Klucel (hydroxypropylcellulose) (HPC)) 107 % of control; (dose: 400.0 mg/kg/injection, schedule: Q04DX003 (ip), vehicle: Klucel (hydroxypropylcellulose) (HPC)) 100 % of control.
As for `COc1ccc(C=NCCN=Cc2ccc(OC)cc2)cc1`, the T/C (dose: 25.0 mg/kg/injection, schedule: Q04DX003 (ip), vehicle: saline with Tween-80) is 100 % of control; the T/C under setting [16] is 109 % of control; the T/C (dose: 100.0 mg/kg/injection, schedule: Q04DX003 (ip), vehicle: saline with Tween-80) is 108 % of control; the T/C (dose: 200.0 mg/kg/injection, schedule: Q04DX003 (ip), vehicle: saline with Tween-80) is 110 % of control.
With `CN=S(=O)(OCCCCOS(=O)(=NC)c1ccc(C)cc1)c1ccc(C)cc1` (stereo unspecified), the T/C under setting [16] is 116 % of control.
With `CCOC(=O)C(CCl)C(C(=O)OCC)C(=O)OCC` (stereo unspecified), the T/C is, setting by setting: (dose: 25.0 mg/kg/injection, schedule: Q01DX009 (ip), vehicle: saline with Tween-80) 117 % of control; under setting [15], 110 % of control; under setting [12], 112 % of control.
